Legend:
[1] = biological target: T1, ERN1 (Homo sapiens, UniProt O75460); assay: ERN1 dimerization, ERN1-Tyk2(C)/ERN1-gp130 luciferase reporter assay; assay type: cell-based; design: Flag (N); expressed in transfected cells; host or cells: HEK293-T
Description: Transfections were carried out using a standard calcium phosphate method. HEK293-T cells were seeded in black tissue-culture treated 96-well plates at 10.000 cells/well in 100 μl culture medium (DMEM supplemented with 10% FCS). Twenty-four hours later, plasmid DNA mixes were prepared that contained plasmids encoding fusion proteins with the first and second interacting proteins and reporter plasmids. The DNA was supplemented with 5 μl 2.5M CaCl2) and double distilled water to a final volume of 50 μl. This mixture was added drop wise to 50 μl 2×HeBS buffer (280 mM NaCl, 1.5 mM Na2HPO4, 50 mM Hepes; pH 7.05) while vigorously vortexing. After incubation at room temperature for 15 min. to allow DNA precipitates to form, the solution was added to the cells at 10 μl/well. Cells were incubated at 37° C., 8% CO2. Twenty-four hours after transfection, cells were treated with the indicated amounts of ligand, either alone or combined with the indicated amount of antagonist. […] Another twenty-four hours later, luciferase activity was measured using the Luciferase Assay System kit (Promega) on a TopCount luminometer (Perkin-Elmer). Each transfection was done in triplicate and the average of the luciferase activity readings was used in the calculations.
Tunicamycin (Sigma T7765; 2 mg/ml stock in DMSO) was diluted in culture medium and added to the cells 24 h prior to luciferase signal read-out. […]
Target sequence in this assay (O75460 with tags, fused parts or gaps): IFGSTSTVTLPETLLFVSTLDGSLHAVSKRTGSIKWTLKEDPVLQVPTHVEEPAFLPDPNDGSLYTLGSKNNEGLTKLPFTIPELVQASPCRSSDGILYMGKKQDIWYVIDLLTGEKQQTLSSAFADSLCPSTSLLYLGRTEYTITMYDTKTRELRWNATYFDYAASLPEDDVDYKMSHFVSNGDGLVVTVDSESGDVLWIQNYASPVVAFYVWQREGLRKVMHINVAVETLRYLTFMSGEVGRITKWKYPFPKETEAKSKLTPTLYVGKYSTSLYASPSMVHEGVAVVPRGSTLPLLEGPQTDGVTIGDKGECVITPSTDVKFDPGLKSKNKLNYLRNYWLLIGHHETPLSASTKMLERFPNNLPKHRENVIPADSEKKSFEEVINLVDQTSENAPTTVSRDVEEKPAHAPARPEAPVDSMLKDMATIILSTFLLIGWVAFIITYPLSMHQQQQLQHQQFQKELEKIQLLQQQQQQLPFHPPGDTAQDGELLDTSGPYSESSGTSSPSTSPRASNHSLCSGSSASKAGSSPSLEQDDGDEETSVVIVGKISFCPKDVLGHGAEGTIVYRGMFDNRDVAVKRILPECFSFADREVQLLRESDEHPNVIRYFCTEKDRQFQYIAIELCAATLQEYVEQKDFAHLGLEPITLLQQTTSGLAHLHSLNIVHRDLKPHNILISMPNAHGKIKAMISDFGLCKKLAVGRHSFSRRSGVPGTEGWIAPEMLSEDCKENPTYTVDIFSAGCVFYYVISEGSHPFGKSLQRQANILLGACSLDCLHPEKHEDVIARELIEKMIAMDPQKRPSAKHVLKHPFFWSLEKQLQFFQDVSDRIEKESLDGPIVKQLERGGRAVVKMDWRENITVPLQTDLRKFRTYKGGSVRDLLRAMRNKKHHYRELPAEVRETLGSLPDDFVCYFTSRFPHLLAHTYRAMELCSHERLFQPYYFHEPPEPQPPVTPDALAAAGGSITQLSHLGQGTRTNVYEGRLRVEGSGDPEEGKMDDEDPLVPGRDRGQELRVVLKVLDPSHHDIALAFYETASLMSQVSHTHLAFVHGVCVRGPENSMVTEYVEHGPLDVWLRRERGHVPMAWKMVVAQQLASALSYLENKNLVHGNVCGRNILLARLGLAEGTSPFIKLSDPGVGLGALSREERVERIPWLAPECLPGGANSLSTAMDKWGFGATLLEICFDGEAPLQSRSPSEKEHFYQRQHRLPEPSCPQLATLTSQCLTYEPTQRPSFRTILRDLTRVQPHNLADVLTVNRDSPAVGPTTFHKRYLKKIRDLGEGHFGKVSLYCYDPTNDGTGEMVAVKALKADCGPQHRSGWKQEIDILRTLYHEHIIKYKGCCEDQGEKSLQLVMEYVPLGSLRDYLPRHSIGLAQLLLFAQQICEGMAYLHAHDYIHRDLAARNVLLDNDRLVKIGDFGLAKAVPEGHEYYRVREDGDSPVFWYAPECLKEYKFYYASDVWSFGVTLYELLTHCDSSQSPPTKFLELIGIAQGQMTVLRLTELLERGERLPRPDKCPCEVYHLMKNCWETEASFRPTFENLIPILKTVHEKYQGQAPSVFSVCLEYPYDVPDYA

[2] = biological target: T1, ERN1; details: reported, Feldman and Koong, 2007; cited from earlier work
Target sequence in this assay (O75460 19-977, species assumed): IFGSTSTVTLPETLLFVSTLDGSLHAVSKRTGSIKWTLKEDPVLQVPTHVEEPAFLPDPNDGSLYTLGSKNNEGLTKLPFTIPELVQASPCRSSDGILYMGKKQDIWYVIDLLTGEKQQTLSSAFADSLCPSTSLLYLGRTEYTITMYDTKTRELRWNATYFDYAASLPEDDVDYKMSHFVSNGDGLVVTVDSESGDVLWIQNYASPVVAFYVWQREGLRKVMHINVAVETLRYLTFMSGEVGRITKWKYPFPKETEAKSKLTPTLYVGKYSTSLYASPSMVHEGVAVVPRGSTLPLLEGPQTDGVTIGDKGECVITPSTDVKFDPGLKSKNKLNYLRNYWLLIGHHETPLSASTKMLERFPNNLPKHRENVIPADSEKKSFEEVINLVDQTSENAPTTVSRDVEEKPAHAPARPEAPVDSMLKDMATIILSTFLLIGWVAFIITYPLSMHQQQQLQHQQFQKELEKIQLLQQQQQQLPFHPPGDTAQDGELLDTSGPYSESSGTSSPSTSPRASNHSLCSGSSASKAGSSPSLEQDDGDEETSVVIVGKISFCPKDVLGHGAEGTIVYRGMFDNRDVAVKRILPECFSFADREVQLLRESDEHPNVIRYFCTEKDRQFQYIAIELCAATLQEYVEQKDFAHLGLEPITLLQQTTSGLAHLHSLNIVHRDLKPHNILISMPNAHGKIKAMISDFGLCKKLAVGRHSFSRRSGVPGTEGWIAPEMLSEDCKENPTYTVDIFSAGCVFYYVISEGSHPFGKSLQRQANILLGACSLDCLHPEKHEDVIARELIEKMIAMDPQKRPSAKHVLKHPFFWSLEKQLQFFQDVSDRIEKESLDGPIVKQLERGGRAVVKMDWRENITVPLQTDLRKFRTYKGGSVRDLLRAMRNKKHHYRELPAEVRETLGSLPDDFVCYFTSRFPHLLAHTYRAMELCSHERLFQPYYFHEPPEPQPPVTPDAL

[3] = biological target: T2, human somatostatin receptor 2 (SSTR2) (Homo sapiens, UniProt P30874); assay: Ligand-dependent SSTR2-ARRB2 interaction, Tyk2(C)/gp130 fusion STAT3-luciferase reporter assay; assay type: cell-based; details: for effect of antagonist on SSTR2-ARRB2 interaction signal: 1 μM somatostatin, 0.05 or 0.5 μM CYN154806, 0.1 or 1 μM losartan or telmisartan, FIG. 4 transfection b; for effect of antagonist on SSTR2-ARRB2 interaction signal, dose-response: 10 μM somatostatin, antagonist 10^-13 M up to 10^-6 M, FIG. 5A
T2 construct: expressed in transfected cells; host or cells: HEK293-T
Description: (§1) The membrane span protein (X) is fused to the C-terminal region of Tyk2 comprising the kinase domain, whereas the polypeptide interacting with the membrane span protein (Y) is fused to a fragment of gp130 which contains phosphorylation sites. When membrane span protein X and the polypeptide Y interact, the Tyk2 kinase domain phosphorylates the phosphorylation sites of gp130. STAT3 transcription factors are recruited to these phosphorylated sites and are in turn phosphorylated by the Tyk2 kinase domain, which results in their activation. Dimers of activated STAT3 transcription factors are able to bind the specific rPAPI promoter, which drives the expression of a firefly luciferase reporter gene. The activity of this reporter gene is measured as light production in a luciferase detection assay using a luminometer.
(§2) The fold induction for each sample was calculated as the ratio of the measured luciferase activity relative to the luciferase activity for the untreated sample of the same transfection.
The assay was further optimized by transferring the Tyk2(C) fusion construct into another vector system (pSVSport) and testing the resulting constructs in a similar experiment as described above. The following combinations of plasmids were transfected (500 ng of the Tyk2(C) fusion construct, 250 ng of the gp130 fusion construct and 50 ng of the luciferase reporter construct) according to the methods described above: […]

[4] = biological target: T3, human angiotensin receptor 1 (AGTR1) (Homo sapiens, UniProt P30556); assay: Ligand-dependent AGTR1-ARRB2 interaction, Tyk2(C)/gp130 fusion STAT3-luciferase reporter assay; assay type: cell-based; details: 10 μM angiotensin II; for effect of antagonist on AGTR1-ARRB2 interaction signal: 0.05 or 0.5 μM CYN154806, 0.1 or 1 μM losartan or telmisartan, FIG. 4 transfection d; for effect of antagonist on AGTR1-ARRB2 interaction signal, dose-response: antagonist 10^-13 M up to 10^-6 M
T3 construct: expressed in transfected cells; host or cells: HEK293-T
T3 sequence (P30556 with tags, fused parts or gaps): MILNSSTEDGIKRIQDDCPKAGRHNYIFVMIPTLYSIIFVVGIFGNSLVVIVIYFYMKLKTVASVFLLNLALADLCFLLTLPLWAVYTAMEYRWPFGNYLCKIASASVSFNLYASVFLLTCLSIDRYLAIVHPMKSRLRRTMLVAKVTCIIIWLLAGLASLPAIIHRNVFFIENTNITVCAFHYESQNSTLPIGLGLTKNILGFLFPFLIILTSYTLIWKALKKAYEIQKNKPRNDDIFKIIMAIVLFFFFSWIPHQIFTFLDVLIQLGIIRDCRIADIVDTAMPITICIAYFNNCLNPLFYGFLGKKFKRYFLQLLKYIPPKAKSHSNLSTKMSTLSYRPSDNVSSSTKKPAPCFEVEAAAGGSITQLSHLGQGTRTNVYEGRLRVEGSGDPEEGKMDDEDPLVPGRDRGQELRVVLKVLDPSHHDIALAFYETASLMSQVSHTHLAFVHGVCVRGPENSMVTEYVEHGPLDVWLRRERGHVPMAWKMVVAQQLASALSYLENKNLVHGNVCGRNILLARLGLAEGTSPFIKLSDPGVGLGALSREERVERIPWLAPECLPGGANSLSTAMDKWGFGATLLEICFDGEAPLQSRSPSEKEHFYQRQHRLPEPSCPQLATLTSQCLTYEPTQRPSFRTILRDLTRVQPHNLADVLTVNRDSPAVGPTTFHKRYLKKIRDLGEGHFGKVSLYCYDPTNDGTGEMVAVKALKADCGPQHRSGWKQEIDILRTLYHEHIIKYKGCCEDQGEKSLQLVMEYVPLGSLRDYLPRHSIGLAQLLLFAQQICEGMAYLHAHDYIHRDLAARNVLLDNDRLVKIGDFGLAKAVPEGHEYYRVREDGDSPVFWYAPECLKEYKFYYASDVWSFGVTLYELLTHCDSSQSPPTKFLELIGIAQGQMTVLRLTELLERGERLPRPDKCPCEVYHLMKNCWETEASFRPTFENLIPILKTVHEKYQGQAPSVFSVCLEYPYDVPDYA
Description: as §1
Transfections were carried out using a standard calcium phosphate method. HEK293-T cells were seeded in black tissue-culture treated 96-well plates at 10.000 cells/well in 100 μl culture medium (DMEM supplemented with 10% FCS). Twenty-four hours later, plasmid DNA mixes were prepared that contained plasmids encoding fusion proteins with the first and second interacting proteins and reporter plasmids. The DNA was supplemented with 5 μl 2.5M CaCl2) and double distilled water to a final volume of 50 μl. This mixture was added drop wise to 50 μl 2×HeBS buffer (280 mM NaCl, 1.5 mM Na2HPO4, 50 mM Hepes; pH 7.05) while vigorously vortexing. After incubation at room temperature for 15 min. to allow DNA precipitates to form, the solution was added to the cells at 10 μl/well. Cells were incubated at 37° C., 8% CO2. Twenty-four hours after transfection, cells were treated with the indicated amounts of ligand, either alone or combined with the indicated amount of antagonist. In the case of Irestatin 9389, cells were pre-treated with the antagonist before adding vehicle (DMSO) or tunicamycin. Another twenty-four hours later, luciferase activity was measured using the Luciferase Assay System kit (Promega) on a TopCount luminometer (Perkin-Elmer). Each transfection was done in triplicate and the average of the luciferase activity readings was used in the calculations.
as §2
Cells were transfected with the following combinations of plasmids (250 ng of the Tyk2(C) fusion construct, 250 ng of the gp130 fusion construct and 50 ng of the luciferase reporter construct) according to the methods described above:
Cells were transfected with 125 ng of the pMet7-SSTR2-Tyk2(C)−HA or pMet7-AGTR1-Tyk2(C)−HA fusion construct, 250 ng of the pMG2-ARRB2 gp130 fusion construct and 50 ng of the pXP2d2-rPAPI-luciferase reporter plasmid, according to the methods described above.

T2 sequence (P30874 with tags, fused parts or gaps): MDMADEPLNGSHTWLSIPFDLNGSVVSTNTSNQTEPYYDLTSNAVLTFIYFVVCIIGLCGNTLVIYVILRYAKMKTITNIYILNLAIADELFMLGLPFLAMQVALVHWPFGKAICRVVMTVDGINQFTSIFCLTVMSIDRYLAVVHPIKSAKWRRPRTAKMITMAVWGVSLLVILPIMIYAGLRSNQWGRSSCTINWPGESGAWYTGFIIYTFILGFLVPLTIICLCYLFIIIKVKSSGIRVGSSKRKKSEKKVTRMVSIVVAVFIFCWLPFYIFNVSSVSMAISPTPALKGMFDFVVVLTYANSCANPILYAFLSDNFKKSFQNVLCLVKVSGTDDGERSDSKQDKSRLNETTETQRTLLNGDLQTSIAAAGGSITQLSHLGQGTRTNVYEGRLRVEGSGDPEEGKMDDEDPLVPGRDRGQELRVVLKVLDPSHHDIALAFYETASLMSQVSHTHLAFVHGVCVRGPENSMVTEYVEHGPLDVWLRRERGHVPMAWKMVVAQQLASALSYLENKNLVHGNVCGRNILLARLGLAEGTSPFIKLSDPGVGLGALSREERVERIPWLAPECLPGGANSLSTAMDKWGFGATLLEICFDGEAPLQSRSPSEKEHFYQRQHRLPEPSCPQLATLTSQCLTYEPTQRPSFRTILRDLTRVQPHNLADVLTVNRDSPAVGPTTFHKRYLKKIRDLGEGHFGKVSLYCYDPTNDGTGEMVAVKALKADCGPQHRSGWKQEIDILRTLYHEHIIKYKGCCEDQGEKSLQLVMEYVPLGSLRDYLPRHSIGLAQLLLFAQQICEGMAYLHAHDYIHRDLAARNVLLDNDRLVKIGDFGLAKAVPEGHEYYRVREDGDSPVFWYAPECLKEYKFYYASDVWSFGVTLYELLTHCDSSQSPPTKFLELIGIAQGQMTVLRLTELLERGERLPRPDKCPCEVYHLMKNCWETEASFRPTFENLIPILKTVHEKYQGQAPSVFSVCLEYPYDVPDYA

Compound | luciferase signal of ERN1 dimerization upon induction of ER-stress ([1]; HEK293-T cells, ERN1-Tyk2(C) + ERN1-gp130, 0-0.5-1-2 μg/ml tunicamycin, FIG. 6A) | disruption of ERN1 dimerization ([1]; 1 μg/ml tunicamycin or vehicle (DMSO) combined with increasing doses of Irestatin 9389, FIG. 6D) | ERN1 endonuclease activity [2] | effect of antagonist on SSTR2-ARRB2 interaction signal [3] | effect of antagonist on SSTR2-ARRB2 interaction signal, dose-response [3] | effect of antagonist on AGTR1-ARRB2 interaction signal [4] | effect of antagonist on AGTR1-ARRB2 interaction signal, dose-response ([4]; FIG. 5B) | effect of telmisartan compared to losartan on AGTR1-ARRB2 interaction ([4]; dose-response, FIG. 5B)
tunicamycin | dose-dependent signal | – | – | – | – | – | – | –
Cc1csc(NC(=O)CSc2nc3c(c(C(F)(F)F)c2C#N)CCC3)n1 [Irestatin 9389] | – | dose-dependent disruption of ERN1 dimerization | inhibit ERN1 endonuclease activity | – | – | – | – | –
CCCc1nc2c(C)cc(-c3nc4ccccc4n3C)cc2n1Cc1ccc(-c2ccccc2C(=O)O)cc1 [telmisartan] | – | – | – | no effect | no effect | selectively inhibited | selectively and completely inhibited | stronger effect
CCCCc1nc(Cl)c(CO)n1Cc1ccc(-c2ccccc2-c2nn[nH]n2)cc1 [losartan] | – | – | – | no effect | no effect | selectively inhibited | selectively and completely inhibited | –
